# Test results: US6133249A, “Phospholipid and propylene glycol based lubricant” (MacNaught Medical Pty Limited, priority 1995, dated 2000)
# Legend:
# [1] = Inflammatory reaction of horse joints (protein, ALP, leucocyte count, specific gravity); assay type: in vivo; settings: 1 ml PG only, 6 horses
# Description: 5. Having established the extreme lubricity imparted by exogenous DPPC and the fact that it is likely to remain in the joint for long enough to be worthwhile clinically, the next step was to look for any inflammatory reaction.
# The following parameters were used as indices of inflammatory reaction:
# 2. Alkaline phosphatase (ALP)
# 6. In the next series of trials, the joints of 6 horses were injected with 1 ml of PG only to see whether the solvent was the major cause of the inflammatory reaction.
# 7. The main series of trials was then devised to compare the inflammatory reaction of the radiocarpal joint to the product (100 mg DPPC in 1 mlPG) with the reactions to other agents commonly injected into that joint in the normal course of clinical practice.
# The agents selected for comparison were
# 1. A standard clinical (1 ml) dose of prilocaine--a local anaesthetic.
# 2. A standard clinical dose of hyaluromic acid (Hyartil)™ (1 ml) a joint lubricant.
# [2] = cited from earlier work
# [3] = Retention of radio-labelled DPPC in the joint; assay type: in vivo, horse
# Description: 4. More quantitative tests were undertaken in a further 4 horses administered radio-labelled 50 mg DPPC in 1 ml. The solution was injected into one contraleteral joint and the horse was sacrificed 2-10 days later when the cartilage was excised and synovial fluid collected for radio-assay.
# [4] = Miscibility and physical state of phospholipid in propylene glycol; assay type: physicochemical; settings: all concentrations / any proportion
# [5] = test system: phospholipases; settings: cited from earlier work
molecule,measurement,setting,value
"CC(O)CO (centres unmarked) [PG, propylene glycol]",solvent as the major cause of the inflammatory reaction,[1],This proved to be the case
same,inflammatory reaction relative to hyaluronic acid,[2]; mammalian joints and other articulations,somewhat less severe
"CCCCCCCCCCCCCCCC(=O)OC[C@H](COP(=O)([O-])OCC[N+](C)(C)C)OC(=O)CCCCCCCCCCCCCCC [DPPC, Dipalmitoyl phosphatidylcholine]",retention of DPPC in the joint,[3]; conclusion,retained in the joint for long enough to enable lubrication to be maintained by monthly or fortnightly irrigation
same,time the joint would remain lubricated after an injection,[3]; inferred from half-lives,about one month
same,miscibility with propylene glycol,[4],totally miscible
"CCCCCCCCCCCCCCCC(=O)OC[C@H](COP(=O)([O-])OCC[N+](C)(C)C)OC(=O)CCCCCCCCCCCCCCC [L-enantiomeric alpha-DPPC, alpha-dipalmitoyl phosphatidylcholine]",metabolism by endogenous phospholipases,[5],capable of metabolising
hyaluronic acid,inflammatory reaction in animal tissues,[2]; in vivo,appreciable inflammatory reaction
"CCCCCCCCCCCCCCCC(=O)OC[C@@H](COP(=O)([O-])OCC[N+](C)(C)C)OC(=O)CCCCCCCCCCCCCCC [D-enantiomeric alpha-DPPC, alpha-dipalmitoyl phosphatidylcholine]",metabolism by endogenous phospholipases,[5],cannot break down
